Reference: patent US8399681B2, “Substituted aminothiazolone indazoles as estrogen related receptor-alpha modulators” (Janssen Pharmaceutica NV, priority 2009, dated 2013)

How the values were obtained:
[1] = biological target: T1, ERR1 (also known as ERR-α or ERR-1) (Homo sapiens, UniProt P11474); test: TR-FRET assay (disruption of co-activator peptide binding); type: biochemical; conditions: 6His-tagged ERR1 LBD, GST-hSRC2 co-activator polypeptide; average of 3 independent experiments
T1 sequence (P11474 193-421 limits assumed): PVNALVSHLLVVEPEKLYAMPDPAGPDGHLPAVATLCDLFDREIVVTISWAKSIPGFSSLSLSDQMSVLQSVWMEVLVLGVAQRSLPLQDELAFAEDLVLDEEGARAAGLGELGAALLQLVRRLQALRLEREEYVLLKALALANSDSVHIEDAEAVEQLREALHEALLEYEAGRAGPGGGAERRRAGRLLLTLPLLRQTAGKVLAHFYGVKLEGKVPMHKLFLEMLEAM
In short: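 His6-ERR1 LBD (6 nM) with GST-SRC-2 peptide (6 nM), anti-GST Eu cryptate (30 nM) and anti-His XL665 (7.5 nM) in Tris pH 8/KCl/DTT/BSA buffer, equilibrated 4-18 h at 25 °C. Ex 340, em 615/665 nm; hyperbolic dose-response fit, mean of 3 experiments.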

[2] = system: Zucker fa/fa male rats; test: Zucker fa/fa Rat Model Assay; type: in vivo; conditions: dosed orally once a day for 4 days, blood collected at day 5
Text: Zucker fa/fa is a monogenic model of frank diabetes due to a mutation on the fa gene truncating the leptin receptor and preventing its interaction with its peptide hormone. This mutation results in a hyperphagic phenotype and the rodent develops obesity, hyperlipidemia, fasting hyperglycemia and insulin resistance. Zucker fa/fa male rats were received at four weeks of age and allowed to acclimate for one week. At five weeks of age the animals were single housed in cages in a temperature-controlled room with 12-hour light/dark cycle. The rats were allowed ad libitum access to water and food and throughout the study were maintained on a Purina 5008 diet. Animals were sorted based primarily on fed insulin levels and circulating triglycerides. Animals were dosed orally once a day in the morning for 4 days. The vehicle used was either 20% HPβCD (Hydroxypropyl Beta Cyclodextrin) or 15% Vitamin E/30% PEG-400 (Polyethylene Glycol 400). Fed insulin and triglycerides were measured using blood collected from the tail vein at day 5. Serum plasma samples were prepared by centrifugation in EDTA (Ethylenediaminetetraacetic acid) containing tubes, transferred into 96 well plates and stored at −80° C.

Structure (SMILES)	EC50 [1] [nM]	% Lowering Fed Insulin Levels [2] [%]	% Lowering Fed Triglyceride Levels [2] [%]
O=C1N=C(N2CCO[C@H](CO)C2)S/C1=C\c1ccc2c(cnn2Cc2ccc(C(F)(F)F)cc2C(F)(F)F)c1 [Example 140, 5-[1-(2,4-Bis-trifluoromethyl-benzyl)-1H-indazol-5-ylmethylene]-2-((2S)-hydroxymethyl-morpholin-4-yl)-thiazol-4-one]	19	59	67
O=C1N=C(N2CCOC[C@H]2CO)S/C1=C\c1ccc2c(cnn2Cc2ccc(C(F)(F)F)cc2C(F)(F)F)c1 [Example 141, 5-[1-(2,4-Bis-trifluoromethyl-benzyl)-1H-indazol-5-ylmethylene]-2-(3(R)-hydroxymethyl-morpholin-4-yl)-thiazol-4-one]	37	49	76
CC1(C(=O)O)CCN(C2=NC(=O)/C(=C/c3ccc4c(cnn4Cc4ccc(Cl)cc4C(F)(F)F)c3)S2)CC1 [Example 75, 1-{5-[1-(4-Chloro-2-trifluoromethyl-benzyl)-1H-indazol-5-ylmethylene]-4-oxo-4,5-dihydro-thiazol-2-yl}-4-methyl-piperidine-4-carboxylic acid]	73.4	–	–
CCOC(=O)CN1CCN(C2=NC(=O)/C(=C/c3ccc4c(cnn4Cc4ccc(Cl)cc4C(F)(F)F)c3)S2)CC1 [Example 127]	29	–	–
COCCOc1ccc(Cn2ncc3cc(/C=C4\SC(N5CCN(C)CC5)=NC4=O)ccc32)c(C(F)(F)F)c1 [Compound 24, 5-{1-[4-(2-Methoxy-ethoxy)-2-trifluoromethyl-benzyl]-1H-indazol-5-ylmethylene}-2-(4-methyl-piperazin-1-yl)-thiazol-4-one]	520	–	–
CC(C)N[C@@H]1C[C@H](CO)N(C2=NC(=O)/C(=C/c3ccc4c(cnn4Cc4ccc(C(F)(F)F)cc4C(F)(F)F)c3)S2)C1 [Example 262]	64	–	–
CN1C2CCC1CN(C1=NC(=O)/C(=C/c3ccc4c(cnn4Cc4ccc(C(F)(F)F)cc4C(F)(F)F)c3)S1)C2 [Example 103, 5-[1-(2,4-Bis-trifluoromethyl-benzyl)-1H-indazol-5-ylmethylene]-2-(8-methyl-3,8-diaza-bicyclo[3.2.1]oct-3-yl)-thiazol-4-one]	12.2	–	–
CC(=O)N(C)C1CCN(C2=NC(=O)/C(=C/c3ccc4c(cnn4Cc4ccc(Cl)cc4C(F)(F)F)c3)S2)CC1 [Example 155, N-(1-{5-[1-(4-Chloro-2-trifluoromethyl-benzyl)-1H-indazol-5-ylmethylene]-4-oxo-4,5-dihydro-thiazol-2-yl}-piperidin-4-yl)-N-methyl-acetamide]	34	–	–
O=C1N=C(N2CCSCC2)S/C1=C\c1ccc2c(cnn2Cc2ccc(Cl)cc2C(F)(F)F)c1 [Example 148, 5-[1-(4-Chloro-2-trifluoromethyl-benzyl)-1H-indazol-5-ylmethylene]-2-thiomorpholin-4-yl-thiazol-4-one]	33	–	–
COC(=O)C1CCN(C2=NC(=O)/C(=C/c3ccc4c(cnn4Cc4ccc(C(F)(F)F)cc4C(F)(F)F)c3)S2)CC1 [Example 190, Methyl 1-[5-({1-[2,4-bis(trifluoromethyl)benzyl]-1H-indazol-5-yl}methylidene)-4-oxo-4,5-dihydro-1,3-thiazol-2-yl]piperidine-4-carboxylate]	53	–	–
O=C1N=C(N2CCOCC2)S/C1=C\c1ccc2c(cnn2Cc2ccc(C(F)(F)F)cc2C(F)(F)F)c1 [Compound 3, 5-[1-(2,4-Bis-trifluoromethyl-benzyl)-1H-indazol-5-ylmethylene]-2-morpholin-4-yl-thiazol-4-one]	21	–	–

Now from value to compound, other results behind:

EC50 [1] [nM]	Structure (SMILES)	% Lowering Fed Insulin Levels [2] [%]	% Lowering Fed Triglyceride Levels [2] [%]
8	O=C1N=C(N2CC(C(=O)O)C2)S/C1=C\c1ccc2c(cnn2Cc2ccc(Cl)cc2C(F)(F)F)c1 [Example 40, 1-{5-[1-(4-Chloro-2-trifluoromethyl-benzyl)-1H-indazol-5-ylmethylene]-4-oxo-4,5-dihydro-thiazol-2-yl}-azetidine-3-carboxylic acid]	75	60
4.5	N[C@H]1CCCN(C2=NC(=O)/C(=C/c3ccc4c(cnn4Cc4ccc(C(F)(F)F)cc4C(F)(F)F)c3)S2)C1 [Example 52, 2-(3-(S)-Amino-piperidin-1-yl)-5-[1-(2,4-bis-trifluoromethyl-benzyl)-1H-indazol-5-ylmethylene]-thiazol-4-one]	86	55
14.3	O=C1N=C(N2CC(C(=O)O)C2)S/C1=C\c1ccc2c(cnn2Cc2ccc(C(F)(F)F)cc2C(F)(F)F)c1 [Example 35, 1-{5-[1-(2,4-Bis-trifluoromethyl-benzyl)-1H-indazol-5-ylmethylene]-4-oxo-4,5-dihydro-thiazol-2-yl}-azetidine-3-carboxylic acid]	45	20
13.3	CN(C)C(=O)CN1CCN(C2=NC(=O)/C(=C/c3ccc4c(cnn4Cc4ccc(Cl)cc4C(F)(F)F)c3)S2)CC1 [Example 72, 2-(4-{5-[1-(4-Chloro-2-trifluoromethyl-benzyl)-1H-indazol-5-ylmethylene]-4-oxo-4,5-dihydro-thiazol-2-yl}-piperazin-1-yl)-N,N-dimethyl-acetamide]	62	57
15	NC1CN(C2=NC(=O)/C(=C/c3ccc4c(cnn4Cc4ccc(Cl)cc4C(F)(F)F)c3)S2)C1 [Example 98, 2-(3-Amino-azetidin-1-yl)-5-[1-(4-chloro-2-trifluoromethyl-benzyl)-1H-indazol-5-ylmethylene]-thiazol-4-one]	51	22
16.4	O=C1N=C(N2C[C@@H]3C[C@H]2CN3CCO)S/C1=C\c1ccc2c(cnn2Cc2ccc(C(F)(F)F)cc2C(F)(F)F)c1 [Example 71, 5-[1-(2,4-Bis-trifluoromethyl-benzyl)-1H-indazol-5-ylmethylene]-2-[5-(2-hydroxy-ethyl)-2S,5S-diaza-bicyclo[2.2.1]hept-2-yl]-thiazol-4-one]	37	25
15.7	COCCN1CCN(C2=NC(=O)/C(=C/c3ccc4c(cnn4Cc4ccc(Cl)cc4C(F)(F)F)c3)S2)CC1 [Example 56, 5-[1-(4-Chloro-2-trifluoromethyl-benzyl)-1H-indazol-5-ylmethylene]-2-[4-(2-methoxy-ethyl)-piperazin-1-yl]-thiazol-4-one]	70	68
7.5	COc1ccc(Cn2ncc3cc(/C=C4\SC(N5CCNCC5)=NC4=O)ccc32)c(C(F)(F)F)c1 [Example 34, 5-[1-(4-Methoxy-2-trifluoromethyl-benzyl)-1H-indazol-5-ylmethylene]-2-piperazin-1-yl-thiazol-4-one]	–	–
3	COc1ccc(Cn2ncc3cc(/C=C4\SC(N5CCN(C)CC5)=NC4=O)ccc32)c(C(F)(F)F)c1 [Compound 21, 5-[1-(4-Methoxy-2-trifluoromethyl-benzyl)-1H-indazol-5-ylmethylene]-2-(4-methyl-piperazin-1-yl)-thiazol-4-one]	–	–
